# According to US7589239B2, “Therapeutic agents for the treatment of cancer, metabolic diseases and skin disorders” (Auspex Pharmaceuticals, priority 2005, dated 2009):
# Target: T1, human RAR-β (Homo sapiens, UniProt P10826)
# T1 sequence (P10826 1-455): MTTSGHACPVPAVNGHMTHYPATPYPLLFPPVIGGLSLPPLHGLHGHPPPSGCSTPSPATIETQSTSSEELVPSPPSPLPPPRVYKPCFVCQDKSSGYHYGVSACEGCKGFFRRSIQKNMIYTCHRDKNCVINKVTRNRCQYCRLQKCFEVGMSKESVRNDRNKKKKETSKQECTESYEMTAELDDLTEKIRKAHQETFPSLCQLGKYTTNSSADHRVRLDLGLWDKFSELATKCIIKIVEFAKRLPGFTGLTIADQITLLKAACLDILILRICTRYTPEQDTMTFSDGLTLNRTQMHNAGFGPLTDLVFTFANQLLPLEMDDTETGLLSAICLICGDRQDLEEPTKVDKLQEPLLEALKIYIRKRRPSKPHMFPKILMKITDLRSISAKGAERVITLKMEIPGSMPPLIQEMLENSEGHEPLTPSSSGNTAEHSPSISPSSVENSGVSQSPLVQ
# Experiment: Co-transfection assay (luciferase reporter induction in transfected COS-7 cells)
# Experimental: The following assay is a measure of the in-vitro binding affinity of the given compound with human RAR-β in COS-7 cells. Binding of the compound to RAR-β will induce transcription of luciferase within the cells. This level of transcription can be quantified based on the amount of luminescence emitted after incubation of the cell lysate with luciferin.
# COS-7 cells were cultured in Dulbecco Modified Eagle's Medium (DMEM) with 4 mM L-glutamine, 4.5 g/L glucose 1.5 g/L sodium bicarbonate and supplemented with 10% fetal bovine serum. Cells were transfected using the calcium phosphate:DNA co-precipitation method. A 10-cm plate of cells was transfected with 5 μg of luciferase reporter construct, 5 μg of expression vector for β-galactosidase, 1 μg of expression vector for RAR-β, and pUC19 as carrier, to a total of 20 μg.
# β-galactosidase (5 μg) was included in each transfection to monitor transfection efficiency. Cells were incubated 6 hours at 37° C. in a CO2 incubator. The cells were re-suspended in fresh media containing 10% serum (96-well plate, 15000 cells per well) with or without compound (in 0.5% DMSO) and the plates were incubated at 37° C. in a CO2 incubator. Lysis buffer (1×) was added to cover the cells and the plates were incubated at ambient temperature for 15 min. Luciferase and β-galactosidase assays were performed 36 hours post-transfection, and the normalized luciferase response was determined as relative light units divided by β-galactosidase activity. Composition of 5× lysis buffer is 125 mM. Tris (pH 7.8) with H3PO4 10 mM trans-1,2 diaminocyclohexane-N,N,N′,N′-tetraaceticacid (CDTA), 10 mM dithiothereitol (DTT), 50% glycerol, 5% triton X-100.
fold induction at 3 µM,fold induction at 40 µM,fold induction at 10 µM,SMILES,fold induction at 0.001 µM,fold induction at 0.03 µM,fold induction at 0.1 µM
,,,"CC1=C(/C=C/C(C)=C/C=C/C(C)=C/C(=O)O)C(C)(C)CCC1 [ATRA, all-trans-retinoic acid, reference compound]",9.3,13.7,19.1
2,6,,"COc1ccc(-c2ccc3cc(B4OC(C)(C)C(C)(C)O4)ccc3c2)cc1C12CC3CC(CC(C3)C1)C2 [Example 9, 2-[6-(3-(1-Adamandyl)-4-methoxyphenyl)-naphthalen-2-yl]-4,4,5,5-tetramethyl[1,3,2]dioxaborolane]",,,
2.1,,3.6,"COc1ccc(-c2ccc3cc(B(O)O)ccc3c2)cc1C12CC3CC(CC(C3)C1)C2 [Example 10, 6-[-3-(1-Adamandyl)-4-methoxyphenyl)-2-naphthoboronic acid]",,,
